From patent US20220031590A1, “ORAL CARE COMPOSITION” (SYMRISE AG, priority 2016, published 2022)

System: in-vitro oral biofilms
Assay: Effect of treatment with active agents on the composition of in-vitro oral biofilms (Calgary Biofilm Device, 16S rRNA pyrosequencing)
Assay type: cell-based, oral bacteria
Excerpt: An in-vitro oral biofilm model for oral care product evaluation has recently been developed using the commercially available Calgary Biofilm Device (CBD) (Ceri, Olson, Stremick, Read, Morck, Buret, J Clin Microbiol. (1999) June; 37(6):1771-6) seeded with a natural saliva inoculum (Kistler, Pesaro, Wade, BMC Microbiol. (2015) December; 15(1):364). The pegs of the CBD were coated in hydroxyapatite to provide a surface that was chemically similar to tooth enamel. […] In addition, the composition of the biofilms was reproducible when derived from saliva of the same individuals at different time points.
Approximately 5 ml of saliva was collected from each volunteer by expectoration into sterile universal tubes. The saliva samples were then pooled together in equal volumes. DNA was extracted from an aliquot of the pooled saliva and 200 μl was pipetted into each well of a microtitre plate, as required. The wells around the edge of the microplate were not used. The device lid, with 96 hydroxyapatite-coated pegs (to mimic teeth) was fitted so that the pegs were bathed in saliva. The CBD was then incubated for 18 hours at 37° C. in air+5% CO2 after which the lid was transferred to a new baseplate containing Brain Heart Infusion (BHI) broth (Fluka Analytical) supplemented with hog gastric mucin (1 g/L), haemin (10 mg/L), and vitamin K (0.5 mg/L). The growth medium was changed after every 3.5 days.
The active agents were prepared as follows: 5% or 7.5% stock solutions were made in absolute ethanol. The stock solutions were then diluted to working concentration in sterile PBS. Thymol was diluted down to a final concentration of 0.1% v/v and the composition according to the invention, comprising 95% carrier and 5% of the compound of formula A, was diluted to 0.15% v/v. The final test concentration of the compound of formula A was 0.0075 wt.-%.
At 7 days, biofilms were treated with the active agents or a negative PBS control. […]
The bacterial composition of the biofilms and saliva was determined using 454 pyrosequencing of partial 16S rRNA genes. […]

Question: What does the source list for Cc1ccc(C(C)C)c(O)c1 [Thymol]?
Answer: PCoA clustering of treated biofilms relative to negative control (community membership (Jaccard index) and structure (thetaYC)): did not cluster separately; Mean no. of OTUs (sd) (richness of the biofilm community, treated twice daily for seven days, thymol 0.1% v/v, composition 0.15% v/v, 10 replicates): 250.8; Effect on the composition of in-vitro biofilms (summary statement): did not have a significant effect
